Assay results from ChEMBL document CHEMBL1138433, “New indole alkaloids from the North Sea bacterium Vibrio parahaemolyticus Bio249” (J Nat Prod, 2003).
Activity calls are given as the source filed them.

Experiments:
Assay type in all cases: functional, organism-based
[1] = tested on: Escherichia coli; test: Antibacterial activity against Escherichia coli by agar diffusion method
[2] = tested on: Bacillus subtilis; test: Antibacterial activity against Bacillus subtilis by agar diffusion method
[3] = tested on: Candida albicans; test: Antifungal activity against Candida albicans by agar diffusion method
[4] = tested on: Streptomyces viridochromogenes; test: Antibacterial activity against Streptomyces viridochromogenes by agar diffusion method
[5] = tested on: Staphylococcus aureus; test: Antibacterial activity against Staphylococcus aureus by agar diffusion method
[6] = tested on: Rhizomucor miehei; test: Antifungal activity against Mucor miehei by agar diffusion method

Measured: Activity

c1ccc2c(Cc3c[nH]c4ccccc34)c[nH]c2c1
inactive: all assays above

CC(=O)C(C)(c1c[nH]c2ccccc12)c1c[nH]c2ccccc12
inactive: all assays above

c1ccc2c(C(c3c[nH]c4ccccc34)c3c[nH]c4ccccc34)c[nH]c2c1
inactive: all assays above

CC(CC(c1c[nH]c2ccccc12)c1c[nH]c2ccccc12)c1c[nH]c2ccccc12 (centres undefined)
inactive: all assays above
